Measured values from patent US9125388B2, “Biological control” (Isis Innovation Limited, priority 1999, dated 2015).

Legend:
Assay in all cases: Recombinant chromosome experiments: parents raised on supplement, progeny on normal food, adults by sex (25, 18 or 29° C.)
Type in all cases: in vivo, Drosophila melanogaster
[1] = system: Hsp26 tTa, tRe Msl-2^Nopu on the 2nd chromosome
Procedure: (§1) 40-45 young females and 20-25 young males raised at 25° C. upon food with the indicated tetracycline supplement were allowed to mate, then transferred to normal (tetracycline-free) food after 3-4 days. These flies were transferred to fresh vials of normal food every day for 12 days, then removed on the 13th day. All the vials were incubated at 25° C. while the progeny developed. The numbers of male and female progeny emerging as adults in each vial were recorded.
(§2) A standard range of additive concentrations were used in the following experiments (0.05-20 μg/ml). […] (=“not done”)
(§3) All the preceding experiments were performed at 25° C., the standard temperature for Drosophila culture. However, the insects in the wild would clearly be exposed to varying temperatures, so we investigated the extent to which the efficiency of the system is affected by temperature. As with the recombinant chromosome experiments, 40-45 young virgin females and 20-25 young males raised at 25° C. upon food with the indicated tetracycline supplement were allowed to mate, then transferred to normal (tetracycline-free) food after 3-4 days. These flies were transferred to fresh vials of normal food every day. The numbers of male and female progeny emerging as adults in each vial were recorded. These experiments were performed at either 18° C. or 29° C.

[2] = system: Sxl^pe-tTA, tRE-Msl-2^Nopu on the X chromosome; settings: for Female progeny per daily vial / Female progeny Total / Male progeny Total: 25° C.; for Female progeny per daily vial: Day 1-12 on tetracycline-free food; for Female progeny Total / Male progeny Total: Day 1-12 total
Procedure: as §1, §2, §3

[3] = system: Sxl^pe-tTA, tRE-Ras64B^V12 on the X chromosome; settings: for Female progeny / Male progeny: 18° C., then tetracycline-free food; for Female progeny per daily vial / Female progeny Total / Male progeny Total: 25° C.; for Female progeny per daily vial: Day 1-12 on tetracycline-free food; for Female progeny Total / Male progeny Total: Day 1-12 total; for Female progeny emerging as adults / Male progeny emerging as adults: 29° C.
Procedure: as §1, §2, §3

[4] = system: Sxl^pe-tTA, tRE-Ras64B^V12 on the third chromosome; settings: for Female progeny Total / Male progeny Total: Day 1-12 total
Procedure: as §1, §2, §3

[5] = parents raised on tetracycline 0.1 μg/ml, 18° C.
[6] = parents raised on tetracycline 0.1 μg/ml, 29° C.
[7] = parents raised on tetracycline 1 μg/ml, 18° C.
[8] = parents raised on tetracycline 1 μg/ml, 29° C.
[9] = parents raised on tetracycline 5 μg/ml, 18° C.
[10] = parents raised on tetracycline 5 μg/ml, 29° C.
[11] = parents raised on Tet. 0.1 μg/ml
[12] = parents raised on Tet. 20 μg/ml
[13] = parents raised on Tet. 100 μg/ml
[14] = parents raised on Tet. 500 μg/ml
[15] = parents raised on Tet. 1000 μg/ml
[16] = parents raised on Tet. 2000 μg/ml
[17] = parents raised on Tetracycline 0.1 μg/ml
[18] = parents raised on Tetracycline 1 μg/ml
[19] = parents raised on Tetracycline 5 μg/ml
[20] = parents raised on tetracycline 0.1 μg/ml
[21] = parents raised on tetracycline 1 μg/ml
[22] = parents raised on tetracycline 5 μg/ml
[23] = parents raised on Tet. 0.1 μg/ml, 25° C.
[24] = parents raised on Tet. 1 μg/ml, 25° C.
[25] = parents raised on Tet. 5 μg/ml, 25° C.
[26] = parents raised on Tet. 20 μg/ml, 25° C.
[27] = parents raised on Tet. 100 μg/ml, 25° C.
[28] = parents raised on Tet. 500 μg/ml, 25° C.
[29] = parents raised on Tet. 1000 μg/ml, 25° C.
[30] = parents raised on Tet. 2000 μg/ml, 25° C.

CN(C)[C@@H]1C(O)=C(C(N)=O)C(=O)[C@@]2(O)C(O)=C3C(=O)c4c(O)cccc4[C@@](C)(O)[C@H]3C[C@@H]12 [Tetracycline, tetracycline]
Female progeny emerging as adults [1, 5]: 8
Male progeny emerging as adults [1, 5]: 832
Female progeny emerging as adults [1, 6]: 0
Male progeny emerging as adults [1, 6]: 696
Female progeny emerging as adults [1, 7]: 7
Male progeny emerging as adults [1, 7]: 879
Female progeny emerging as adults [1, 8]: 0
Male progeny emerging as adults [1, 8]: 658
Female progeny emerging as adults [1, 9]: 4
Male progeny emerging as adults [1, 9]: 818
Female progeny emerging as adults [1, 10]: 0
Male progeny emerging as adults [1, 10]: 711
Female progeny per daily vial [2, 11]: 0
Female progeny Total [2, 11]: 0
Male progeny Total [2, 11]: 1464
Female progeny per daily vial ([2]; parents raised on Tet. 1 μg/ml): 0
Female progeny Total ([2]; parents raised on Tet. 1 μg/ml): 0
Male progeny Total ([2]; parents raised on Tet. 1 μg/ml): 1527
Female progeny per daily vial ([2]; parents raised on Tet. 5 μg/ml): 0
Female progeny Total ([2]; parents raised on Tet. 5 μg/ml): 0
Male progeny Total ([2]; parents raised on Tet. 5 μg/ml): 1535
Female progeny per daily vial [2, 12]: 0
Female progeny Total [2, 12]: 0
Male progeny Total [2, 12]: 1243
Female progeny per daily vial [2, 13]: 0
Female progeny Total [2, 13]: 0
Male progeny Total [2, 13]: 1483
Female progeny Total [2, 14]: 2
Male progeny Total [2, 14]: 1625
Female progeny Total [2, 15]: 29
Male progeny Total [2, 15]: 1402
Female progeny Total [2, 16]: 44
Male progeny Total [2, 16]: 1543
Female progeny emerging as adults [2, 5]: 6
Male progeny emerging as adults [2, 5]: 695
Female progeny emerging as adults [2, 6]: 0
Male progeny emerging as adults [2, 6]: 682
Female progeny emerging as adults [2, 7]: 8
Male progeny emerging as adults [2, 7]: 816
Female progeny emerging as adults [2, 8]: 0
Male progeny emerging as adults [2, 8]: 804
Female progeny emerging as adults [2, 9]: 8
Male progeny emerging as adults [2, 9]: 785
Female progeny emerging as adults [2, 10]: 0
Male progeny emerging as adults [2, 10]: 648
Female progeny [3, 17]: 8
Male progeny [3, 17]: 982
Female progeny [3, 18]: 10
Male progeny [3, 18]: 912
Female progeny [3, 19]: 7
Male progeny [3, 19]: 871
Female progeny per daily vial [3, 11]: 0
Female progeny Total [3, 11]: 0
Male progeny Total [3, 11]: 1262
Female progeny per daily vial ([3]; parents raised on Tet. 1 μg/ml): 0
Female progeny Total ([3]; parents raised on Tet. 1 μg/ml): 0
Male progeny Total ([3]; parents raised on Tet. 1 μg/ml): 1399
Female progeny per daily vial ([3]; parents raised on Tet. 5 μg/ml): 0
Female progeny Total ([3]; parents raised on Tet. 5 μg/ml): 0
Male progeny Total ([3]; parents raised on Tet. 5 μg/ml): 1359
Female progeny per daily vial [3, 12]: 0
Female progeny Total [3, 12]: 0
Male progeny Total [3, 12]: 1398
Female progeny per daily vial [3, 13]: 0
Female progeny Total [3, 13]: 0
Male progeny Total [3, 13]: 1469
Female progeny Total [3, 14]: 25
Male progeny Total [3, 14]: 1478
Female progeny Total [3, 15]: 49
Male progeny Total [3, 15]: 1349
Female progeny Total [3, 16]: 92
Male progeny Total [3, 16]: 1439
Female progeny emerging as adults [3, 20]: 0
Male progeny emerging as adults [3, 20]: 716
Female progeny emerging as adults [3, 21]: 0
Male progeny emerging as adults [3, 21]: 711
Female progeny emerging as adults [3, 22]: 0
Male progeny emerging as adults [3, 22]: 715
Female progeny per daily vial ([4]; parents raised on Tet. 0.1 μg/ml, 25° C., Day 1-12 on tetracycline-free food): 0
Female progeny Total [4, 23]: 0
Male progeny Total [4, 23]: 1541
Female progeny per daily vial ([4]; parents raised on Tet. 1 μg/ml, 25° C., Day 1-12 on tetracycline-free food): 0
Female progeny Total [4, 24]: 0
Male progeny Total [4, 24]: 1441
Female progeny per daily vial ([4]; parents raised on Tet. 5 μg/ml, 25° C., Day 1-12 on tetracycline-free food): 0
Female progeny Total [4, 25]: 0
Male progeny Total [4, 25]: 1421
Female progeny per daily vial ([4]; parents raised on Tet. 20 μg/ml, 25° C., Day 1-12 on tetracycline-free food): 0
Female progeny Total [4, 26]: 0
Male progeny Total [4, 26]: 1487
Female progeny per daily vial ([4]; parents raised on Tet. 100 μg/ml, 25° C., Day 1-12 on tetracycline-free food): 0
Female progeny Total [4, 27]: 0
Male progeny Total [4, 27]: 1416
Female progeny Total [4, 28]: 72
Male progeny Total [4, 28]: 1388
Female progeny Total [4, 29]: 87
Male progeny Total [4, 29]: 1416
Male progeny per daily vial ([4]; parents raised on Tet. 2000 μg/ml, 25° C., Day 1-12 on tetracycline-free food, listed as Tet.): 123
Female progeny Total [4, 30]: 161
Male progeny Total [4, 30]: 1438
Female progeny emerging as adults [4, 5]: 6
Male progeny emerging as adults [4, 5]: 1065
Female progeny emerging as adults [4, 6]: 0
Male progeny emerging as adults [4, 6]: 781
Female progeny emerging as adults [4, 7]: 9
Male progeny emerging as adults [4, 7]: 1124
Female progeny emerging as adults [4, 8]: 0
Male progeny emerging as adults [4, 8]: 749
Female progeny emerging as adults [4, 9]: 7
Male progeny emerging as adults [4, 9]: 989
Female progeny emerging as adults [4, 10]: 0
Male progeny emerging as adults [4, 10]: 741
